Tests used:
[1] = test system: Staphylococcus aureus ATCC 6538P FDA 209P; experiment: Antimicrobial activity, serial dilution technique in Mueller–Hinton Broth 2; assay type: cell-based; conditions: average of three ± SD, - means non-active
Experimental: (§1) The synthesized compounds were tested for antimicrobial activity against a number of Gram-positive bacteria, Staphylococcus aureus (Sa), Bacillus cereus (Bc) and Enterococcus faecalis (Ef), and Gram-negative bacteria, Escherichia coli (Ec) and Pseudomonas aeruginosa (Pa), including the methicillin-resistant strains S. aureus MRSA-1 (resistant to fluoroquinolones and beta-lactams) and MRSA-2 (resistant to beta-lactams). The methicillin-resistant strains S. aureus were transferred by the Republican Clinical Hospital of the Republic of Tatarstan (Kazan). The fungicidal activity against Candida albicans (Ca) and Trichophyton mentagrophytes var. gypseum (Tm) was studied. These pathogens were chosen because they are the most widespread in the food industry and the healthcare system.
(§2) The antimicrobial activity of the QPSs was determined using the serial dilution technique in Mueller–Hinton Broth 2. The cultures used for testing included the Gram-positive bacteria Staphylococcus aureus ATCC 6538P FDA 209P, Enterococcus faecalis ATCC 2921 and Bacillus cereus ATCC 10702 NCTC 8035, the Gram-negative bacteria Escherichia coli ATCC 25922 and Pseudomonas aeruginosa ATCC 9027, and the fungi Trichophyton mentagrophytes var. gypseum 1773 and Candida albicans ATCC 10231; methicillin-resistant strains of S. aureus MRSA were obtained from hospital patients with chronic tonsillitis (MRSA-1) and sinusitis (MRSA-2) in the Republican Clinical Hospital (Kazan, Russia). […] The bacterial load was 3.0 × 10^5 cfu/mL. The results were recorded every 24 h for 5 days. The cultures were incubated at 37 °C. The experiment was repeated three times. […] The minimum inhibitory concentration (MIC) was defined as the minimum concentration of a compound that inhibits the growth of the corresponding test micro-organism. The growth of bacteria as well as the absence of growth due to the bacteriostatic action of a compound was recorded.

[2] = test system: Escherichia coli ATCC 25922; experiment: as above; assay type: cell-based; conditions: average of three ± SD, - means non-active; for MIC: Escherichia coli, ATCC25922, Ec, read-out: Minimum Inhibitory Concentration (MIC), Ec
Experimental: as §1, §2

[3] = test system: Bacillus cereus ATCC 10702 NCTC 8035; experiment: as above; assay type: cell-based; conditions: average of three ± SD, - means non-active
Experimental: as §1, §2

[4] = test system: Pseudomonas aeruginosa ATCC 9027; experiment: as above; assay type: cell-based; conditions: average of three ± SD, - means non-active; for MBC: read-out: Minimum Bactericidal and Fungicidal Concentration (MBC, MFC), Pa
Experimental: as §1, §2

[5] = test system: Enterococcus faecalis ATCC 2921; experiment: as above; assay type: cell-based; conditions: average of three ± SD, - means non-active
Experimental: as §1, §2

[6] = test system: Escherichia coli ATCC 25922; experiment: as above; assay type: cell-based; conditions: average of three ± SD, - means non-active
[7] = test system: Trichophyton mentagrophytes var. gypseum 1773; experiment: Fungicidal activity, serial dilution technique; assay type: cell-based; conditions: Tm, average of three ± SD, - means non-active
Experimental: as §1
(§3) The antimicrobial activity of the QPSs was determined using the serial dilution technique in Mueller–Hinton Broth 2. The cultures used for testing included the Gram-positive bacteria Staphylococcus aureus ATCC 6538P FDA 209P, Enterococcus faecalis ATCC 2921 and Bacillus cereus ATCC 10702 NCTC 8035, the Gram-negative bacteria Escherichia coli ATCC 25922 and Pseudomonas aeruginosa ATCC 9027, and the fungi Trichophyton mentagrophytes var. gypseum 1773 and Candida albicans ATCC 10231; methicillin-resistant strains of S. aureus MRSA were obtained from hospital patients with chronic tonsillitis (MRSA-1) and sinusitis (MRSA-2) in the Republican Clinical Hospital (Kazan, Russia). Ciprofloxacin and ketoconazole were purchased from Sigma-Aldrich. The bacterial load was 3.0 × 10^5 cfu/mL. The results were recorded every 24 h for 5 days. The cultures were incubated at 37 °C. The experiment was repeated three times. […] The minimum inhibitory concentration (MIC) was defined as the minimum concentration of a compound that inhibits the growth of the corresponding test micro-organism. The growth of bacteria as well as the absence of growth due to the bacteriostatic action of a compound was recorded.

[8] = test system: Candida albicans ATCC 10231; experiment: Fungicidal activity, serial dilution technique; assay type: cell-based; conditions: average of three ± SD, - means non-active; for MIC: read-out: Minimum Inhibitory Concentration (MIC), Ca
Experimental: as §1, §3

[9] = test system: methicillin-resistant S. aureus MRSA-1; experiment: Antimicrobial activity, serial dilution technique in Mueller–Hinton Broth 2; assay type: cell-based, Staphylococcus aureus; conditions: - means non-active; for Minimum Inhibitory Concentration (MIC), MRSA-1 / MIC: MRSA-1 (resistant to fluoroquinolones and beta-lactams); for MIC: read-out: Minimum Inhibitory Concentration (MIC), MRSA-1
Experimental: as §1, §2

[10] = test system: methicillin-resistant S. aureus MRSA-2; experiment: as above; assay type: cell-based, Staphylococcus aureus; conditions: - means non-active; for Minimum Inhibitory Concentration (MIC), MRSA-2 / MIC: MRSA-2 (resistant to beta-lactams); for MIC: Staphylococcus aureus, MRSA, read-out: Minimum Inhibitory Concentration (MIC), MRSA-2
Experimental: as §1, §2

[11] = Pseudomonas aeruginosa, ATCC9027, Pa
[12] = Candida albicans, ATCC10231, Ca

| SMILES | Minimum Inhibitory Concentration (MIC), Sa [1] [µg/mL] | Minimum Inhibitory Concentration (MIC), Ec [2] [µg/mL] | Minimum Bactericidal and Fungicidal Concentration (MBC, MFC), Bc [3] [µg/mL] | Minimum Inhibitory Concentration (MIC), Bc [3] [µg/mL] | Minimum Bactericidal and Fungicidal Concentration (MBC, MFC), Pa [4] [µg/mL] | Minimum Inhibitory Concentration (MIC), Pa [4] [µg/mL] | Minimum Bactericidal and Fungicidal Concentration (MBC, MFC), Ef [5] [µg/mL] | Minimum Inhibitory Concentration (MIC), Ef [5] [µg/mL] | Minimum Bactericidal and Fungicidal Concentration (MBC, MFC), Ec [6] [µg/mL] | Minimum Bactericidal and Fungicidal Concentration (MBC, MFC), Tm [7] [µg/mL] | Minimum Inhibitory Concentration (MIC), Tm [7] [µg/mL] | Minimum Bactericidal and Fungicidal Concentration (MBC, MFC), Ca [8] [µg/mL] | Minimum Inhibitory Concentration (MIC), Ca [8] [µg/mL] | Minimum Inhibitory Concentration (MIC), MRSA-1 [9] [µg/mL] | Minimum Inhibitory Concentration (MIC), MRSA-2 [10] [µg/mL] | Minimum Bactericidal and Fungicidal Concentration (MBC, MFC), MRSA-2 [10] [µg/mL] | Minimum Bactericidal and Fungicidal Concentration (MBC, MFC), Sa [1] [µg/mL] | MIC [2] [µg/mL] | MBC [4, 11] [µg/mL] | MIC [8, 12] [µg/mL] | other results |
| --- | --- | --- | --- | --- | --- | --- | --- | --- | --- | --- | --- | --- | --- | --- | --- | --- | --- | --- | --- | --- | --- |
| CCCCCCCCCCCC[P+](C(C)(C)C)(C(C)(C)C)C(C)(C)C [Compound 12b] | 0.5 ± 0.03 | 15.6 ± 1.3 | 62.5 ± 5.5 | 1.9 ± 0.01 | 125 ± 10 | 125 ± 11 | 15.6 ± 1.3 | 1.9 ± 0.02 | 15.6 ± 1.2 | 62.5 ± 5.2 | 31.3 ± 2.4 | 15.6 ± 1.3 | 15.6 ± 1.3 | 1.9 ± 0.1 | 0.5 ± 0.04 | 31.3 ± 2.7 |  |  |  |  |  |
| CCCCCCCCCCCCC[P+](C(C)(C)C)(C(C)(C)C)C(C)(C)C [Compound 13a, tri-tert-butyl(n-tridecyl)phosphonium] |  |  | 7.8 ± 0.6 |  |  | 15.6 ± 1.3 |  | 3.9 ± 0.3 |  |  |  | 31.3 ± 2.2 |  |  |  | 0.5 ± 0.03 | 0.5 ± 0.04 | 3.9 ± 0.02 | 31.3 ± 2.4 | 15.6 ± 1.2 | MIC ([1]; Staphylococcus aureus, Sa, read-out: Minimum Inhibitory Concentration (MIC), Sa): 0.2 ± 0.01 µg/mL; MIC ([3]; Bacillus cereus, Bc, read-out: Minimum Inhibitory Concentration (MIC), Bc): 0.9 ± 0.07 µg/mL; MBC ([5]; Enterococcus faecalis, ATCC2921, Ef, read-out: Minimum Bactericidal and Fungicidal Concentration (MBC, MFC), Ef): 7.8 ± 0.6 µg/mL; MBC ([6]; Escherichia coli, ATCC25922, Ec, read-out: Minimum Bactericidal and Fungicidal Concentration (MBC, MFC), Ec): 3.9 ± 0.2 µg/mL; MBC ([7]; Trichophyton mentagrophytes, read-out: Minimum Bactericidal and Fungicidal Concentration (MBC, MFC), Tm): 125 ± 10 µg/mL; MIC ([7]; Trichophyton mentagrophytes, read-out: Minimum Inhibitory Concentration (MIC), Tm): 125 ± 10 µg/mL; MIC ([9]; Staphylococcus aureus, MRSA): 0.5 ± 0.04 µg/mL; MBC ([9]; Staphylococcus aureus, MRSA, MRSA-1, read-out: Minimum Bactericidal and Fungicidal Concentration (MBC, MFC), MRSA-1): 0.3 ± 0.02 µg/mL; MIC [10]: 0.3 ± 0.02 µg/mL |
| CCCCCCCCCCCCC[P+](C(C)(C)C)(C(C)(C)C)C(C)(C)C [Compound 13b] | 0.2 ± 0.01 | 7.8 ± 0.6 | 31.3 ± 2.3 | 0.5 ± 0.04 | 31.3 ± 2.2 | 31.3 ± 2.3 | 3.9 ± 0.3 | 1.9 ± 0.1 | 7.8 ± 0.6 | 62.5 ± 5.3 | 62.5 ± 5.2 | 7.8 ± 0.6 | 7.8 ± 0.5 | 0.3 ± 0.02 | 0.3 ± 0.01 | 3.9 ± 0.3 | 0.2 ± 0.01 |  |  |  | Minimum Bactericidal and Fungicidal Concentration (MBC, MFC), MRSA-1 ([9]; MRSA-1): 0.5 ± 0.03 µg/mL |
| CCCCCCCCCCCCCC[P+](C(C)(C)C)(C(C)(C)C)C(C)(C)C [Compound 14a] | 1.9 ± 0.2 |  |  | 7.8 ± 0.6 |  |  | 3.9 ± 0.2 | 1.9 ± 0.1 | 1.9 ± 0.1 | 125 ± 10 | 125 ± 11 |  |  |  |  | 62.5 ± 5.3 |  | 1.9 ± 0.1 | 125 ± 11 | 7.8 ± 0.6 | MBC ([1]; Staphylococcus aureus, Sa, read-out: Minimum Bactericidal and Fungicidal Concentration (MBC, MFC), Sa): 1.9 ± 0.1 µg/mL; MBC ([3]; Bacillus cereus, Bc, read-out: Minimum Bactericidal and Fungicidal Concentration (MBC, MFC), Bc): 15.6 ± 1.3 µg/mL; MIC ([4]; Pseudomonas aeruginosa, ATCC9027, Pa, read-out: Minimum Inhibitory Concentration (MIC), Pa): 15.6 ± 1.1 µg/mL; MBC ([8]; Candida albicans, ATCC10231, Ca, read-out: Minimum Bactericidal and Fungicidal Concentration (MBC, MFC), Ca): 15.6 ± 1.2 µg/mL; Minimum Bactericidal and Fungicidal Concentration (MBC, MFC), MRSA-1 ([9]; MRSA-1): 7.8 ± 0.6 µg/mL; MIC ([9]; Staphylococcus aureus, MRSA): 0.5 ± 0.03 µg/mL; MIC [10]: 0.5 ± 0.04 µg/mL |
